Measurements as given in patent US20240270762A1, “PENICILLIN-BINDING PROTEIN INHIBITORS” (priority 2021, published 2024).
≈ marks a conversion by molar mass, not a printed value.

Legend:
A. baumannii 1258916 = assay: microbe, parasite or virus in culture; format: cell-based, Acinetobacter baumannii; conditions: Acinetobacter baumannii, 1258916, read-out: MIC, A. baumannii 1258916
A. baumannii CDC-0033 = assay: microbe, parasite or virus in culture; format: cell-based; conditions: Acinetobacter baumannii, CDC0033, read-out: MIC, A. baumannii CDC-0033
A. baumannii ATCC 19606 = assay: microbe, parasite or virus in culture; format: cell-based; conditions: Acinetobacter baumannii, ATCC19606, read-out: MIC, A. baumannii ATCC 19606
[1] = system: B. thailandensis ATCC 700388; assay: microbe, parasite or virus in culture; format: cell-based; conditions: Burkholderia thailandensis, ATCC700388, read-out: Minimum inhibitory concentration (MIC), B. thailandensis ATCC 700388
P. aeruginosa CDC-0110 = assay: microbe, parasite or virus in culture; format: cell-based; conditions: Pseudomonas aeruginosa, CDC0110, read-out: Minimum inhibitory concentration, P. aeruginosa CDC-0110
A. baumannii CDC-0045 = assay: microbe, parasite or virus in culture; format: cell-based; conditions: Acinetobacter baumannii, CDC0045, read-out: MIC, A. baumannii CDC-0045
P. aeruginosa CDC-0090 = assay: microbe, parasite or virus in culture; format: cell-based; conditions: Pseudomonas aeruginosa, CDC0090, read-out: Minimum inhibitory concentration, P. aeruginosa CDC-0090
P. aeruginosa CDC-0054 = assay: microbe, parasite or virus in culture; format: cell-based; conditions: Pseudomonas aeruginosa, CDC0054, read-out: Minimum inhibitory concentration, P. aeruginosa CDC-0054
P. aeruginosa ATCC 35151 = assay: microbe, parasite or virus in culture; format: cell-based; conditions: Pseudomonas aeruginosa, ATCC35151, read-out: Minimum inhibitory concentration, P. aeruginosa ATCC 35151
[2] = system: P. aeruginosa (ΔmexAB-oprM); assay: Broth microdilution MIC in iron-depleted CAMHB (IDM); format: cell-based; conditions: Pseudomonas aeruginosa; iron-depleted CAMHB (IDM); […]; read-out: Minimum inhibitory concentration, P. aeruginosa ΔmexAB-oprM
A. baumannii PBP2 = A. baumannii PBP2 (Acinetobacter baumannii, UniProt D0C8Z9); assay: Bocillin-FL competition binding via gel filtration, A. baumannii PBP2
A. baumannii PBP2, sequence (D0C8Z9 whole entry): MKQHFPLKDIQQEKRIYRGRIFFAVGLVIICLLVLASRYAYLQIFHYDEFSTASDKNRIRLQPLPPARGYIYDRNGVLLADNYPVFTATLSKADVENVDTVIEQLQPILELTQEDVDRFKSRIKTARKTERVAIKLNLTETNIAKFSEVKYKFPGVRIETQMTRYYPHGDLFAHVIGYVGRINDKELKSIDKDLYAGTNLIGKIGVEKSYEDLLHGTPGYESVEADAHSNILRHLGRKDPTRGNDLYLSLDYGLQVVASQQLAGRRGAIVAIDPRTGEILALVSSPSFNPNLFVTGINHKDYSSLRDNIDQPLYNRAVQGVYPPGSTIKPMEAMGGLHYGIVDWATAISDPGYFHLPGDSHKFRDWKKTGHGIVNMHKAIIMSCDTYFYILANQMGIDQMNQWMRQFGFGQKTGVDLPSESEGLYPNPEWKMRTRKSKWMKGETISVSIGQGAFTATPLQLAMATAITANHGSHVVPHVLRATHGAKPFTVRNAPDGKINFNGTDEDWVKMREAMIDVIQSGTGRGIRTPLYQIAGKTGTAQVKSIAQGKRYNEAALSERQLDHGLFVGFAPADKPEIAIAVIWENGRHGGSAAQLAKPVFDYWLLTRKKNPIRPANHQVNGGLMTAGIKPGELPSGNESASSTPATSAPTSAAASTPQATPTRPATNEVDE
Method in brief: (§1)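 Competitive equilibrium binding with Bocillin-FL reporter: PBP pre-incubated with inhibitor dilutions, Bocillin-FL added, 15 min incubation. Labelled enzyme isolated by size-exclusion spin plates, fluorescence measured; EC50 obtained by fitting bound fraction against inhibitor concentration with a Hill-coefficient model.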

[3] = system: B. humptydooensis ATCC BAA-2767; assay: microbe, parasite or virus in culture; format: cell-based; conditions: Burkholderia humptydooensis, ATCCBAA2767, read-out: Minimum inhibitory concentration (MIC), B. humptydooensis ATCC BAA-2767
P. aeruginosa CDC-0095 = assay: microbe, parasite or virus in culture; format: cell-based; conditions: Pseudomonas aeruginosa, CDC0095, read-out: Minimum inhibitory concentration, P. aeruginosa CDC-0095
A. baumannii PBP1a = target: T1, A. baumannii PBP1a (Acinetobacter baumannii, UniProt A0ABX6CK30); assay: Bocillin-FL competition binding via gel filtration, A. baumannii PBP1a; conditions: competition binding assay using Bocillin-FL via gel filtration; read-out: A. baumannii PBP1a Potency
T1 sequence (A0ABX6CK30 1-851): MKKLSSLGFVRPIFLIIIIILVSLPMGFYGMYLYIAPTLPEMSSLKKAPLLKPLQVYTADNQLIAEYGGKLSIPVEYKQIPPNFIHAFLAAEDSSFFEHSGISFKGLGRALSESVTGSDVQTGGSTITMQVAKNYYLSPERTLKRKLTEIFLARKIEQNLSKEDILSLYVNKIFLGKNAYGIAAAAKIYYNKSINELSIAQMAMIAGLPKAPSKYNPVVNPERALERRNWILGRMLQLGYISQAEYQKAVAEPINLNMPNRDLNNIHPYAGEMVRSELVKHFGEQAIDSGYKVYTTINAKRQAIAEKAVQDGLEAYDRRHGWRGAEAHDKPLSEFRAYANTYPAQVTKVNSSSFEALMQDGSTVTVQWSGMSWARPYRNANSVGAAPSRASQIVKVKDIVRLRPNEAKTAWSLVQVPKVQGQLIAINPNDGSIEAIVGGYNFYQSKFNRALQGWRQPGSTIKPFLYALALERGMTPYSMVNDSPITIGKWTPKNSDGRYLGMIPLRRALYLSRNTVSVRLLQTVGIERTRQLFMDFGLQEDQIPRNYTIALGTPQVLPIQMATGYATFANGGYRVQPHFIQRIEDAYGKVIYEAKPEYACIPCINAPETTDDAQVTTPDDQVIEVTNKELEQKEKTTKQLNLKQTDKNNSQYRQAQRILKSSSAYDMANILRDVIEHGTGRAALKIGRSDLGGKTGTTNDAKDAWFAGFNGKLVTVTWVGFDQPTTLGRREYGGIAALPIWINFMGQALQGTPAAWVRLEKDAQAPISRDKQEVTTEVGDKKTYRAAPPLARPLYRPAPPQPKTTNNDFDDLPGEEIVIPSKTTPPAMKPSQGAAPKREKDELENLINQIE
Method in brief: as §1

A. baumannii ATCC 17978 = assay: microbe, parasite or virus in culture; format: cell-based; conditions: Acinetobacter baumannii, ATCC17978, read-out: MIC, A. baumannii ATCC 17978
A. baumannii CDC-0083 = assay: microbe, parasite or virus in culture; format: cell-based; conditions: Acinetobacter baumannii, CDC0083, read-out: MIC, A. baumannii CDC-0083

| SMILES | MIC (A. baumannii 1258916) [µg/mL] | MIC (A. baumannii CDC-0033) [µg/mL] | MIC (A. baumannii ATCC 19606) [µg/mL] | MIC [1] [µg/mL] | MIC (P. aeruginosa CDC-0110) [µg/mL] | MIC (A. baumannii CDC-0045) [µg/mL] | MIC (P. aeruginosa CDC-0090) [µg/mL] | MIC (P. aeruginosa CDC-0054) [µg/mL] | MIC (P. aeruginosa ATCC 35151) [µg/mL] | MIC [2] [µg/mL] | EC50 (A. baumannii PBP2) [µM] | MIC [3] [µg/mL] | MIC (P. aeruginosa CDC-0095) [µg/mL] | EC50 (A. baumannii PBP1a) [µM] | MIC (A. baumannii ATCC 17978) [µg/mL] | MIC (A. baumannii CDC-0083) [µg/mL] |
| --- | --- | --- | --- | --- | --- | --- | --- | --- | --- | --- | --- | --- | --- | --- | --- | --- |
| O=C(NCCCN1CCN(C(=O)NC(C(=O)N[C@H]2Cc3ccc(F)c(C(=O)O)c3OB2O)c2cc(F)c(O)c(O)c2Cl)C(=O)C1=O)c1cc(O)c(F)c(O)c1F (stereo partly drawn) [Example 415, (3R)-3-(2-(2-chloro-5-fluoro-3,4-dihydroxyphenyl)-2-(4-(3-(2,4-difluoro-3,5-dihydroxybenzamido)propyl)-2,3-dioxopiperazine-1-carboxamido)acetamido)-7-fluoro-2-hydroxy-3,4-dihydro-2H-benzo[e][1,2]oxaborinine-8-carboxylic acid] | 2 to 4 (≈ 2.46 to 4.93 µM) | 2 to 4 (≈ 2.46 to 4.93 µM) | < 1 | 8 to 16 (≈ 9.85 to 19.7 µM) | < 1 | 2 to 4 (≈ 2.46 to 4.93 µM) | < 1 | < 1 | < 1 | < 1 | 10 to 50 | 8 to 16 (≈ 9.85 to 19.7 µM) | < 1 | < 10 | < 1 | 2 to 4 (≈ 2.46 to 4.93 µM) |
| O=C(NCCCN1CCN(C(=O)NC(C(=O)N[C@H]2Cc3ccc(F)c(C(=O)O)c3OB2O)c2cc(F)c(O)c(O)c2Cl)C(=O)C1=O)c1cccc(O)c1F (stereo partly drawn) [Example 406, (3R)-3-(2-(2-chloro-5-fluoro-3,4-dihydroxyphenyl)-2-(4.-(3-(2-fluoro-3-hydroxybenzamido)propyl)-2,3-dioxopiperazine-1-carboxamido)acetamido)-7-fluoro-2-hydroxy-3,4-dihydro-2H-benzo[e][1,2]oxaborinine-8-carboxylic acid] | 2 to 4 (≈ 2.57 to 5.14 µM) | 2 to 4 (≈ 2.57 to 5.14 µM) | < 1 | 2 to 4 (≈ 2.57 to 5.14 µM) | < 1 | < 1 | < 1 | < 1 | < 1 | < 1 | 10 to 50 | 8 to 16 (≈ 10.3 to 20.6 µM) | < 1 | < 10 | < 1 | < 1 |
| O=C(NCCN1CCN(C(=O)N[C@@H](C(=O)N[C@H]2Cc3ccc(F)c(C(=O)O)c3OB2O)c2cc(F)c(O)c(O)c2Cl)C1=O)Nc1ccc(O)cc1 [Example 279, (R)-3-((R)-2-(2-chloro-5-fluoro-3,4-dihydroxyphenyl)-2-(3-(2-(3-(4-hydroxyphenyl)ureido)ethyl)-2-oxoimidazolidine-1-carboxamido)acetamido)-7-fluoro-2-hydroxy-3,4-dihydro-2H-benzo[e][1,2]oxaborinine-8-carboxylic acid] | < 1 | 2 to 4 (≈ 2.73 to 5.46 µM) | < 1 | < 1 | < 1 | < 1 | 2 to 4 (≈ 2.73 to 5.46 µM) | < 1 | < 1 | < 1 | 10 to 50 | < 1 | 2 to 4 (≈ 2.73 to 5.46 µM) | < 10 | < 1 | < 1 |
| O=C(NCCS(=O)(=O)N1CCN(C(=O)N[C@@H](C(=O)N[C@H]2Cc3ccc(F)c(C(=O)O)c3OB2O)c2cc(F)c(O)c(O)c2Cl)C1=O)c1ccc(O)cc1 [Example 287, (R)-3-((R)-2-(2-chloro-5-fluoro-3,4-dihydroxyphenyl)-2-(3-((2-(4-hydroxybenzamido)ethyl)sulfonyl)-2-oxoimidazolidine-1-carboxamido)acetamido)-7-fluoro-2-hydroxy-3,4-dihydro-2H-benzo[e][1,2]oxaborinine-8-carboxylic acid] | < 1 | < 1 | < 1 | 2 to 4 (≈ 2.56 to 5.12 µM) | < 1 | < 1 | 2 to 4 (≈ 2.56 to 5.12 µM) | 2 to 4 (≈ 2.56 to 5.12 µM) | < 1 | < 1 | < 10 | < 1 | 2 to 4 (≈ 2.56 to 5.12 µM) | 10 to 50 | < 1 | < 1 |
| O=C(NCCCN1CCN(C(=O)NC(C(=O)N[C@H]2Cc3ccc(F)c(C(=O)O)c3OB2O)c2cc(F)c(O)c(O)c2Cl)C(=O)C1=O)c1ccc(O)c(F)c1F (stereo partly drawn) [Example 306, (3R)-3-(2-(2-chloro-5-fluoro-3,4-dihydroxyphenyl)-2-(4-(3-(2,3-difluoro-4-hydroxybenzamido)propyl)-2,3-dioxopiperazine-1-carboxamido)acetamido)-7-fluoro-2-hydroxy-3,4-dihydro-2H-benzo[e][1,2]oxaborinine-8-carboxylic acid] | < 1 | 2 to 4 (≈ 2.51 to 5.03 µM) | < 1 | 2 to 4 (≈ 2.51 to 5.03 µM) | < 1 | < 1 | < 1 | 2 to 4 (≈ 2.51 to 5.03 µM) | < 1 | < 1 | < 10 | 2 to 4 (≈ 2.51 to 5.03 µM) | < 1 | < 10 | < 1 | 2 to 4 (≈ 2.51 to 5.03 µM) |
| O=C(NCCCN1CCN(C(=O)NC(C(=O)N[C@H]2Cc3ccc(F)c(C(=O)O)c3OB2O)c2cc(F)c(O)c(O)c2Cl)C(=O)C1=O)c1cc(O)c(F)c(O)c1 (stereo partly drawn) [Example 416, (3R)-3-(2-(2-chloro-5-fluoro-3,4-dihydroxyphenyl)-2-(4-(3-(4-fluoro-3,5-dihydroxybenzamido)propyl)-2,3-dioxopiperazine-1-carboxamido)acetamido)-7-fluoro-2-hydroxy-3,4-dihydro-2H-benzo[e][1,2]oxaborinine-8-carboxylic acid] | < 1 | 2 to 4 (≈ 2.52 to 5.04 µM) | < 1 | < 1 | < 1 | < 1 | < 1 | < 1 | < 1 | < 1 | < 10 | < 1 | < 1 | < 10 | < 1 | < 1 |
| O=C(NCCCN1CCN(C(=O)NC(C(=O)N[C@H]2Cc3ccc(F)c(C(=O)O)c3OB2O)c2cc(F)c(O)c(O)c2Cl)C(=O)C1=O)c1c(F)cncc1F (stereo partly drawn) [Example 402, (3R)-3-(2-(2-chloro-5-fluoro-3,4-dihydroxyphenyl)-2-(4-(3-(3,5-difluoroisonicotinamido)propyl)-2,3-dioxopiperazine-1-carboxamido)acetamido)-7-fluoro-2-hydroxy-3,4-dihydro-2H-benzo[e][1,2]oxaborinine-8-carboxylic acid] | 2 to 4 (≈ 2.56 to 5.12 µM) | 2 to 4 (≈ 2.56 to 5.12 µM) | < 1 | 2 to 4 (≈ 2.56 to 5.12 µM) | < 1 | < 1 | < 1 | < 1 | < 1 | < 1 | 10 to 50 | 2 to 4 (≈ 2.56 to 5.12 µM) | < 1 | < 10 | < 1 | 2 to 4 (≈ 2.56 to 5.12 µM) |
